Measurements published in patent US20050239656A1, “Pyridine compounds or salts thereof and herbicides containing the same” (priority 2002, published 2005).

These compounds were tested on barnyardgrass (assay: Test Example 1: foliage treatment, upland pot test). Conditions: active ingredient 500 g/ha, observed 18th to 23rd day, 0 = non-treated, 100 = complete kill.
Format: in vivo, Echinochloa crus-galli L.
Procedure, shortened: (§1)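 Each plant species was sprayed once on its foliage, with wheat at 1.3–2.4, soybean at 0.1–0.4, barnyardgrass at 1.3–2.8 and rice at 1.2–2.6 leaves. Visual ratings of growth inhibition, 0 to 100%, followed 18–23 days later.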

SMILES	Growth controlling degree (%) Barnyardgrass [%]
CCCCC(=O)N(C)C(c1cnccc1C(F)(F)F)C(C)C (stereo not shown) [I-199]	70

These compounds were tested on green foxtail (assay: Test Example 1: foliage treatment, upland pot test). Conditions: active ingredient 500 g/ha, observed 18th to 23rd day, 0 = non-treated, 100 = complete kill.
Format: in vivo, Setaria viridis L.

SMILES	Growth controlling degree (%) Green foxtail [%]
CCCCC(=O)N(C)C(c1cnccc1C(F)(F)F)C(C)C (stereo not shown) [I-199]	70

These compounds were tested on japanese bulrush (assay: Test Example 3: paddy pot test, application under submerged conditions). Conditions: active ingredient 250 g/ha; submerged application at 0.5 leaf stage; visually observed 14 days after application; 0 = non-treated, 100 = complete kill.
Format: in vivo, Scirpus juncoides
Procedure, shortened: (§2)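 Seeds were sown in flooded paddy soil (0.5–1 cm water), wapato tubers were planted 1–2 days later, and water was then held at 3–4 cm. Diluted wettable powder or emulsifiable concentrate was pipetted into the water at the 0.5 leaf or primary leaf stage. Growth control was visually scored at 14 days (0–100%).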

SMILES	Growth controlling degree (%) Japanese bulrush [%]
CCCCC(=O)N(C)C(c1cnccc1C(F)(F)F)C(C)C (stereo not shown) [I-199]	98

Each compound was assayed on crabgrass (assay: Test Example 1: foliage treatment, upland pot test). Conditions: active ingredient 500 g/ha, observed 18th to 23rd day, 0 = non-treated, 100 = complete kill.
Format: in vivo, Digitaria sanguinalis L.

SMILES	Growth controlling degree (%) Crabgrass [%]
CCCCC(=O)N(C)C(c1cnccc1C(F)(F)F)C(C)C (stereo not shown) [I-199]	80

What follows are compounds tested on barnyardgrass (assay: Test Example 2: soil surface treatment, upland pot test). Conditions: active ingredient 250 g/ha, observed 20th to 28th day.
Format: in vivo, Echinochloa crus-galli L.
Procedure, shortened: (§3)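 Upland soil in pots of 1/170,000 ha is sown; on day 1 after sowing the formulated compound (wettable powder or emulsifiable concentrate, predetermined a.i. amount, water volume 1,500 L/ha) is applied to the soil surface with a small sprayer. Percent control is judged by eye 20–28 days later.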

SMILES	Growth controlling degree (%) Barnyardgrass [%]
CCCCC(=O)N(C)C(c1cnccc1C(F)(F)F)C(C)C (stereo not shown) [I-199]	100

These compounds were tested on wheat (assay: Test Example 1: foliage treatment, upland pot test). Conditions: crop, active ingredient 500 g/ha, observed 18th to 23rd day, 0 = non-treated, 100 = complete kill.
Format: in vivo, Triticum spp.
Source text: Upland field soil was put into a 1/170,000 ha pot, and seed of various plants were sown. Then, when the plants reached predetermined leaf stages ((1) barnyardgrass: 1.3 to 2.8 leaf stages, (2) crabgrass: 1.0 to 2.8 leaf stages, (3) green foxtail: 1.3 to 2.6 leaf stages, (4) redroot pigweed: 0.1 to 1.2 leaf stages, (5) prickly sida: 0.1 to 1.2 leaf stages, (6) velvetleaf: 0.1 to 1.2 leaf stages, (7) tall morningglory: 0.1 to 1.5 leaf stages, (8) rice: 1.2 to 2.6 leaf stages, (9) wheat: 1.3 to 2.4 leaf stages, (10) corn, 2.1 to 3.2 leaf stages, (11) soybean: 0.1 to 0.4 leaf stage), a wettable powder or emulsifiable concentrate having the compound of the present invention formulated in accordance with a usual formulation method, was weighed so that the active ingredient would be a predetermined amount, and diluted with water in an amount of 500 L/ha. To the diluted solution, 0.1% (v/v) of agricultural spreader was added. The herbicide thus adjusted was applied by a small size sprayer for foliage treatment. On the 18th to 23rd days after the application of the herbicide, the growth of the respective plants was visually observed, and the herbicidal effects were evaluated by the growth controlling degrees (%) ranging from 0 (equivalent to the non-treated plot) to 100 (complete kill), whereby the results shown in Table 3, were obtained.

SMILES	Growth controlling degree (%) wheat [%]
CCCCC(=O)N(C)C(c1cnccc1C(F)(F)F)C(C)C (stereo not shown) [I-199]	50

The compounds below were run on prickly sida (assay: Test Example 1: foliage treatment, upland pot test). Conditions: active ingredient 500 g/ha, observed 18th to 23rd day, 0 = non-treated, 100 = complete kill.
Format: in vivo, Sida spinosa L.

SMILES	Growth controlling degree (%) Prickly sida [%]
CCCCC(=O)N(C)C(c1cnccc1C(F)(F)F)C(C)C (stereo not shown) [I-199]	70

Each compound was assayed on corn (assay: Test Example 1: foliage treatment, upland pot test). Conditions: crop, active ingredient 500 g/ha, observed 18th to 23rd day, 0 = non-treated, 100 = complete kill.
Format: in vivo, Zea mays L.
Procedure, shortened: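 Corn seeds were sown in upland field soil held in a 1/170,000 ha pot and grown to the 2.1 to 3.2 leaf stage. A wettable powder or emulsifiable concentrate of the test compound was diluted with water at 500 L/ha, given 0.1% (v/v) agricultural spreader, and sprayed onto the foliage with a small sprayer. Growth controlling degree (%) was scored visually 18th to 23rd days later, from 0 (non-treated) to 100 (complete kill).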

SMILES	Growth controlling degree (%) Corn [%]
CCCCC(=O)N(C)C(c1cnccc1C(F)(F)F)C(C)C (stereo not shown) [I-199]	60

The compounds below were run on soybean (assay: Test Example 2: soil surface treatment, upland pot test). Conditions: active ingredient 250 g/ha, observed 20th to 28th day.
Format: in vivo, Glycine max Merr.
Procedure, shortened: as §3

SMILES	Growth controlling degree (%) Soyabean [%]
CCCCC(=O)N(C)C(c1cnccc1C(F)(F)F)C(C)C (stereo not shown) [I-199]	20

What follows are compounds tested on rice (var. Nihonbare) (assay: Test Example 3: paddy pot test, transplanted rice). Conditions: active ingredient 250 g/ha, applied 4th day after transplantation, visually observed 21st day after application, 0 = non-treated, 100 = complete kill.
Format: in vivo, Oryza sativa L.
Procedure, shortened: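 Rice (2-leaf stage) was transplanted 3 cm deep into puddled, leveled paddy soil under 3–4 cm flooding. On day 4 after transplanting, diluted wettable powder or emulsifiable concentrate was pipetted onto the water at a predetermined active-ingredient dose. Growth control (0 = untreated, 100 = complete kill) was scored visually 21 days later.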

SMILES	Growth controlling degree (%) Rice [%]
CCCCC(=O)N(C)C(c1cnccc1C(F)(F)F)C(C)C (stereo not shown) [I-199]	40

These compounds were tested on rice (assay: Test Example 2: soil surface treatment, upland pot test). Conditions: active ingredient 250 g/ha, observed 20th to 28th day.
Format: in vivo, Oryza sativa L.
Procedure, shortened: as §3

SMILES	Growth controlling degree (%) Rice [%]
CCCCC(=O)N(C)C(c1cnccc1C(F)(F)F)C(C)C (stereo not shown) [I-199]	90

Each compound was assayed on soybean (assay: Test Example 1: foliage treatment, upland pot test). Conditions: crop, active ingredient 500 g/ha, observed 18th to 23rd day, 0 = non-treated, 100 = complete kill.
Format: in vivo, Glycine max Merr.
Procedure, shortened: as §1

SMILES	Growth controlling degree (%) Soybean [%]
CCCCC(=O)N(C)C(c1cnccc1C(F)(F)F)C(C)C (stereo not shown) [I-199]	60

What follows are compounds tested on crabgrass (assay: Test Example 2: soil surface treatment, upland pot test). Conditions: active ingredient 250 g/ha, observed 20th to 28th day.
Format: in vivo, Digitaria sanguinalis L.
Procedure, shortened: as §3

SMILES	Growth controlling degree (%) Crabgrass [%]
CCCCC(=O)N(C)C(c1cnccc1C(F)(F)F)C(C)C (stereo not shown) [I-199]	100

These compounds were tested on redroot pigweed in the same assay as above. Conditions: active ingredient 250 g/ha, observed 20th to 28th day.
Format: in vivo, Amaranthus retroflexus L.
Procedure, shortened: as §3

SMILES	Growth controlling degree (%) Redroot pigweed [%]
CCCCC(=O)N(C)C(c1cnccc1C(F)(F)F)C(C)C (stereo not shown) [I-199]	70

These compounds were tested on prickly sida in the same assay as above. Conditions: active ingredient 250 g/ha, observed 20th to 28th day.
Format: in vivo, Sida spinosa L.
Procedure, shortened: as §3

SMILES	Growth controlling degree (%) Prickly sida [%]
CCCCC(=O)N(C)C(c1cnccc1C(F)(F)F)C(C)C (stereo not shown) [I-199]	80

These compounds were tested on redroot pigweed (assay: Test Example 1: foliage treatment, upland pot test). Conditions: active ingredient 500 g/ha, observed 18th to 23rd day, 0 = non-treated, 100 = complete kill.
Format: in vivo, Amaranthus retroflexus L.

SMILES	Growth controlling degree (%) Redroot pigweed [%]
CCCCC(=O)N(C)C(c1cnccc1C(F)(F)F)C(C)C (stereo not shown) [I-199]	60

What follows are compounds tested on green foxtail (assay: Test Example 2: soil surface treatment, upland pot test). Conditions: active ingredient 250 g/ha, observed 20th to 28th day.
Format: in vivo, Setaria viridis L.
Procedure, shortened: as §3

SMILES	Growth controlling degree (%) Green foxtail [%]
CCCCC(=O)N(C)C(c1cnccc1C(F)(F)F)C(C)C (stereo not shown) [I-199]	100

Each compound was assayed on velvetleaf in the same assay as above. Conditions: active ingredient 250 g/ha, observed 20th to 28th day.
Format: in vivo, Abutilon theophrasti MEDIC.
Procedure, shortened: as §3

SMILES	Growth controlling degree (%) Velvetleaf [%]
CCCCC(=O)N(C)C(c1cnccc1C(F)(F)F)C(C)C (stereo not shown) [I-199]	50

Each compound was assayed on velvetleaf (assay: Test Example 1: foliage treatment, upland pot test). Conditions: active ingredient 500 g/ha, observed 18th to 23rd day, 0 = non-treated, 100 = complete kill.
Format: in vivo, Abutilon theophrasti MEDIC.

SMILES	Growth controlling degree (%) Velvetleaf [%]
CCCCC(=O)N(C)C(c1cnccc1C(F)(F)F)C(C)C (stereo not shown) [I-199]	60

These compounds were tested on barnyardgrass (assay: Test Example 3: paddy pot test, application under submerged conditions). Conditions: active ingredient 250 g/ha; submerged application at 0.5 leaf stage; visually observed 14 days after application; 0 = non-treated, 100 = complete kill.
Format: in vivo, Echinochloa crus-galli L.
Procedure, shortened: as §2

SMILES	Growth controlling degree (%) Barnyardgrass [%]
CCCCC(=O)N(C)C(c1cnccc1C(F)(F)F)C(C)C (stereo not shown) [I-199]	100

Each compound was assayed on wheat (assay: Test Example 2: soil surface treatment, upland pot test). Conditions: active ingredient 250 g/ha, observed 20th to 28th day.
Format: in vivo, Triticum spp.
Procedure, shortened: as §3

SMILES	Growth controlling degree (%) wheat [%]
CCCCC(=O)N(C)C(c1cnccc1C(F)(F)F)C(C)C (stereo not shown) [I-199]	50

Each compound was assayed on rice (assay: Test Example 1: foliage treatment, upland pot test). Conditions: crop, active ingredient 500 g/ha, observed 18th to 23rd day, 0 = non-treated, 100 = complete kill.
Format: in vivo, Oryza sativa L.
Procedure, shortened: as §1

SMILES	Growth controlling degree (%) Rice [%]
CCCCC(=O)N(C)C(c1cnccc1C(F)(F)F)C(C)C (stereo not shown) [I-199]	50
